In US9802929B2, “Benzo five-membered nitrogen heterocyclic piperidine or piperazine derivatives and preparation methods and pharmaceutical compositions thereof” (Shenyang Haiwang Biotechnology Co., Ltd., priority 2012, dated 2017):
Several values for one entry are separate records, joined by “and”; a condition that tells them apart may be missing. Equal values may be shown once. Where a name gives a salt, the structure may show the parent alone.

Legend:
[1] = Acute toxicity test, simplified probability unit method; conditions: both sexes, mouse, in vivo; oral administration, Kunming mice
[2] = tested on: In-Vitro Vascular Smooth Muscle of Rabbits; assay: Relaxant effect on in vitro rabbit vascular smooth muscle contraction induced by hyperkalemia solution; conditions: Oryctolagus cuniculus, relaxation of rabbit aortic rings contracted by hyperkalemia solution (K+ 60 mmol/L)
Ca^2+ channel = assay: Antagonism of CaCl2 cumulative contraction of rabbit aorta, pA2; conditions: CaCl2 cumulative contraction after Ca-free hyperkalemia depolarization
From the text: Calcium-free K—H solution: Remove CaCl2 from K—H solution, add an equal number of moles of KCl, and add EDTA^−2Na^+ 0.1 mmol/L, while the other components remain unchanged.
Calcium-free hyperkalemia solution: Remove CaCl2 from hyperkalemia solution, add an equal number of moles of KCl, and add EDTA^−2Na^+ 0.1 mmol/L, while the other components remain unchanged.
(§1) Cut the chest open quickly after stunning, strip out the descending aorta, then after removing the surrounding connective tissue and adipose tissue (if performed serotonin receptor antagonist experiments, endothelial cells should be removed using a smooth stainless steel bars), cut the vessels into 3-5 mm vascular ring, then pass the steel hook through the blood vessel ring, with one end is fixed to the vent hook and the other end connected to the tension transducer, then place the specimens into bath tube containing 20 mL of nutrient solution, and record tension change by tension transducer. Maintain tube temperature at 37±0.5° C., and pass bubbles (95% O2+5% CO2) into the solution as a speed of 1-2 bubbles/minute. Place an initial load of 1.5 g on the rings, and change nutrient every 20 minutes, then balance for 2 hours and start test after baseline readings are stabilized.
After the tension is stabilized, wash the specimen three times and incubate with Ca-free K—H solution for 40 minutes; depolarize with Ca-free hyperkalemia solution for 20 minutes, and then add CaCl2 (10^−6-10^−2 mol/L) to the tube until a maximum response is achieved, and then record the curve. Then wash with K—H solution repeatedly, and replace with fresh K—H solution every 20 minutes; after balancing for 60 minutes and the baseline values are stabilized, wash the specimen again three times, and incubate with Ca-free K—H solution for 40 minutes; depolarize with Ca-free hyperkalemia solution for 20 minutes, and then add compound II-36 (3×10^−6 mol/L) to the tube, and incubate for 20 minutes; then add CaCl2 (10^−6-10^−2 mol/L) until a maximum response is achieved, and then record the curve. Mark CaCl2 contraction as ordinate using maximum response as 100% base. […] PA2 value of compound II-36 is 5.61±0.04 against CaCl2 contraction effect on rabbit aorta.
After the tension is stabilized, wash the specimen three times and incubate with Ca-free K—H solution for 40 minutes; depolarize with Ca-free hyperkalemia solution for 20 minutes, and then add CaCl2 (10^−6-10^−2 mol/L) to the tube until a maximum response is achieved, and then record the curve. […]

Kunming mice = assay: Bone marrow micronucleus test; conditions: of 1000 polychromatic erythrocytes; oral, four days, test on the 5th day; II-36 120 mg/kg/day, cyclophosphamide 60 mg/kg/day
Protocol: After four days of continuous administration, perform bone marrow micronucleus test on the 5th day.
Positive contro, Cyclophosphamide 60 mg/kg/day; negative control, saline solution 0.1 ml/10 g/day. After four days of continuous administration, perform bone marrow micronucleus test on the 5th day.
The mice were sacrificed by cervical dislocation, and quickly stripped out of the femur and sternum;
blood and muscles were removed, epiphysis was cleaned; then sternum bone marrow was transfer with a hemostat squeeze onto clean slides with drops of calf serum or wash the femoral the marrow with fetal calf serum directly onto clean slides; after mixing, adjust slides well; then put the adjusted and aired slide into a staining jar filled with methanol, and allow to fix for 15 minutes; and then take it out and place in air until dry out; then, use freshly prepared Giemsa application solution (one sample of Giemsa stock solution and nine samples of phosphate buffer pH 6.8), stained for 10 minutes to wash away slide dye with small stream of water, and then observe under a microscope after it is dried.

α1 receptors = assay: Antagonism of α receptor agonist (noradrenaline / phenylephrine) cumulative contraction of rabbit aorta, pA2
From the text: as §1
After the tension is stabilized, record a certain length of the curve, and add NA (10^−8-10^−4 mol/L) to the tube until a maximum response is achieved, and then record the curve. Then wash the specimen with K—H solution repeatedly, balance for 1 h, add compound II-36 (3×10^−7 mol/L), and 20 minutes later, add NA following a same procedure. Mark NA contraction as ordinate using maximum response as 100% base. […] The larger the PA2 value, the stronger the antagonist effect. It is calculated based on the values of the attached figures by software.
After the tension is stabilized, record a certain length of the curve, and add NA (10^−8-10^−4 mol/L) to the tube until a maximum response is achieved, and then record the curve. Then wash the specimens repeatedly with K—H solution, and refresh K—H solution every 20 minutes, and balance for 60 minutes to allow baseline values are stabilized; then add doxazosin (10^−7 mol/L) and after 15 minutes, add NA in the same way (10^−8-6×10^−5 mol/L). Mark NA contraction as ordinate using maximum response as 100% base. […] The PA2 value of positive control doxazosin is 7.52±0.04 against NA contraction of rabbit aorta.
(§2) After the tension is stabilized, record a certain length of the curve, and add NA (3×10^−7-6×10^−5 mol/L) to the tube until a maximum response is achieved, and then record the curve. Then wash the specimen with K—H solution repeatedly, balance for 1 h, add compound II-65 (3×10^−6 mol/L), and 20 minutes later, add NA (3×10^−7-3×10^−4 mol/L) following a same procedure. Mark NA contraction as ordinate using maximum response as 100% base. […] PA2 value of compound II-65 is 6.02±0.13 against NA contraction effect on rabbit aorta.
After above procedures, wash the specimen repeatedly with K—H solution, balance for 1 hour, add doxazosin (10^−7 mol/L), and add NA in the same way after 15 minutes. Mark NA contraction as ordinate using maximum response as 100% base. […] The PA2 value of positive control doxazosin is 7.16±0.24 against NA contraction of rabbit aorta.
as §2, with “Phenylephrine (10^−6-6×10^−3” for “NA (3×10^−7-6×10^−5”, “II-68 (3×10^−8” for “II-65 (3×10^−6”, “Phenylephrine” for “NA (3×10^−7-3×10^−4 mol/L)”, “Phenylephrine” for “NA”, “II-68” for “II-65”, “8.45±0.03” for “6.02±0.13”

For `Clc1cccc(C2CCN(CCCCn3nnc4ccccc43)CC2)c1` [II-2, N-(4-(1H-benzotriazole-1-yl)butyl)-4-(3-chlorophenyl)piperidine], the LD50 [1] was 362 mg/kg and the EC50 [2] was 15.1 µM.

In the case of `CCOC(=O)C1=C(COCCN)NC(C)=C(C(=O)OC)C1c1ccccc1Cl` (stereo not drawn) [amlodipine, Amlodipine Besylate, reference compound], the “PA2 value against CaCl2 contraction” value (Ca^2+ channel) is reported as 6.99±0.05 and 7.15±0.288.

For `O=P1(N(CCCl)CCCl)NCCCO1` (stereo not drawn) [cyclophosphamide, Cyclophosphamide, reference compound], the “polychromatic erythrocytes with micronucleus” value (Kunming mice) was 12 ‰.

In the case of `COc1cc2nc(N3CCN(C(=O)C4COc5ccccc5O4)CC3)nc(N)c2cc1OC` (stereo not drawn) [doxazosin, Doxazosin Mesylate, reference compound], the “PA2 value against Phenylephrine contraction” value (α1 receptors; Phenylephrine cumulative contraction) is reported as 7.52±0.04 and the “PA2 value against NA contraction” value (α1 receptors; noradrenaline (NA) cumulative contraction) is reported as 7.52±0.04 and 7.16±0.24.
